Test results taken from ChEMBL document CHEMBL3286140, “Synthesis and biological evaluation of salpichrolide analogs as antiestrogenic agents” (Eur J Med Chem, 2014).
Active and inactive are the calls of the source. No cut-off for these calls is given here.

Columns and labels:
MCF7 [1] = test: Inhibition of 17beta-estradiol-induced in ERalpha positive human MCF7 cells proliferation assessed as [3H]-thymidine incorporation after 72 hrs by liquid scintillation counting; format: functional, cell-based
MCF7 [2] = test: Inhibition of 17beta-estradiol-induced in ERalpha positive human MCF7 cells proliferation assessed as [3H]-thymidine incorporation at 1 uM after 72 hrs by liquid scintillation counting; format: functional, cell-based
MCF7 [3] = test: Cytotoxicity against ERalpha positive human MCF7 cells at 10 nM and 1 uM; format: cell-based; settings: mcf7, 0.01 µM
MDA-MB-231 [4] = test: Cytotoxicity against ERalpha negative human MDA-MB-231 cells at 10 nM and 1 uM; format: cell-based; settings: mda-mb-231, 0.01 µM
MCF7 [5] = test: Inhibition of 17beta-estradiol-induced in ERalpha positive human MCF7 cells proliferation assessed as [3H]-thymidine incorporation at 100 nM after 72 hrs by liquid scintillation counting; format: functional, cell-based
MDA-MB-231 [6] = test: Inhibition of 17beta-estradiol-induced in ERalpha negative human MDA-MB-231 cells proliferation assessed as [3H]-thymidine incorporation after 72 hrs by liquid scintillation counting; format: functional, cell-based
MCF7 [7] = test: Inhibition of 17beta-estradiol-induced in ERalpha positive human MCF7 cells proliferation assessed as [3H]-thymidine incorporation at 10 nM after 72 hrs by liquid scintillation counting; format: functional, cell-based

In the case of `CC(=O)c1ccc2c(c1)CC[C@H]1[C@H]2C[C@@H]2O[C@@]23C[C@@H](O)CC[C@]13C`, the inhibition (MCF7 [1]) is reported as “inactive”.
With `CC(=O)c1ccc2c(c1)CC[C@H]1[C@H]2CC[C@H]2CC=C[C@H](O)[C@@]21C` the inhibition (MCF7 [2]) was “inactive”.
For `C[C@@H](c1cc(O)c2c(c1)CC[C@H]1[C@H]2C[C@@H]2O[C@@]23CC=CC(=O)[C@]13C)[C@@H]1C[C@@H]2O[C@@H]2[C@H](O)O1` [SALPICHROLIDE G], the Activity (MCF7 [3]) was “Toxic”, the Activity (MDA-MB-231 [4]) was “Toxic” and the IC50 (MCF7 [1]) was 140 nM.
`CC(=O)c1ccc2c(c1)CC[C@H]1[C@H]2CC[C@H]2CC=CC(=O)[C@@]21C` was tested, and the inhibition (MCF7 [5]) was “Active”, the inhibition (MDA-MB-231 [6]) was “inactive” and the IC50 (MCF7 [1]) was 50 nM.
`C[C@]12CC[C@@H]3c4ccc(O)cc4C[C@@H](CCCCCCCCC[S+]([O-])CCCC(F)(F)C(F)(F)F)[C@H]3[C@@H]1CC[C@@H]2O` (stereo not given in full) [FULVESTRANT] was tested, and the inhibition (MCF7 [7]) was “Active” and the IC50 (MCF7 [1]) was 1.9 nM.
For `C[C@@H](c1ccc2c(c1)CC[C@H]1[C@H]2C[C@@H]2O[C@@]23CC=C[C@H](O)[C@]13C)[C@H]1C[C@]2(C)O[C@]2(C)[C@H](O)O1`, the IC50 (MCF7 [1]) was 18 nM.
With `CC(=O)c1ccc2c(c1)CC[C@H]1[C@H]2C[C@H]2O[C@]23C[C@@H](O)CC[C@]13C` the inhibition (MCF7 [2]) was “inactive”.
`CC(=O)c1ccc2c(c1)CC[C@H]1[C@H]2CC[C@H]2C[C@@H](O)CC[C@@]21C` was tested, and the inhibition (MCF7 [5]) was “Active”, the inhibition (MDA-MB-231 [6]) was “inactive” and the IC50 (MCF7 [1]) was 330 nM.
